Laboratory results from article PMC3443238, “Synthesis and Antiangiogenic Activity of N-Alkylated Levamisole Derivatives” (PLoS ONE, 2012).
Structures can show the parent of a compound that is named as a salt.

What was measured:
[1] = target: T1, human placenta alkaline phosphatase (HPAP) (Homo sapiens, UniProt P05187); assay: Alkaline phosphatase assay (p-nitrophenyl phosphate), human placenta enzyme; format: biochemical
T1 construct: alkaline phosphatase (0.01 U/mL) from human placenta or bovine kidneys; from tissue; host or cells: human placenta
T1 sequence (P05187 23-506 limits assumed): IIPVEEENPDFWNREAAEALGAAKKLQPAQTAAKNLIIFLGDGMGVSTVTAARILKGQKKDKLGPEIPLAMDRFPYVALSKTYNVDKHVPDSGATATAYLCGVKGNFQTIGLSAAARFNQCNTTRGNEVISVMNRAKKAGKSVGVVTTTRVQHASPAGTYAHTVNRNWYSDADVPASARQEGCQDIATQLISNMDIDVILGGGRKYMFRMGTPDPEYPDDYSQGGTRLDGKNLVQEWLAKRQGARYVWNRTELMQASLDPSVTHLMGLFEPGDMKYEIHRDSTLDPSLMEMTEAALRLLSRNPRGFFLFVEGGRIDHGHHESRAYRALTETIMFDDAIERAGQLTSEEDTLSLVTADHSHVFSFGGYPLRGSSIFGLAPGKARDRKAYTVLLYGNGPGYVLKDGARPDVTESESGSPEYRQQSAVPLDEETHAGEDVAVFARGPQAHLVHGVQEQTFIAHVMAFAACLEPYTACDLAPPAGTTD
Protocol: (§1) The levamisole derivatives were diluted to 2.5, 5 and 10 mM in DMSO. Samples (10 µL) and 90 µL solution of alkaline phosphatase (0.01 U/mL) from human placenta or bovine kidneys diluted in substrate buffer were added to a 96-well microtiter plate and incubated for 35 minutes at room temperature. Hereafter, 100 µL p-nitrophenyl phosphate (2 mg/mL) were added, and the plate was read at 405 nm with background subtraction at 650 nm on a Versamax Elisa reader (Molecular Devices, Sunnyvale, CA, USA) after 24 and 35 min. Results were obtained as the mean of double determinations. The EC50 values were read from the curve at half maximal absorbance.

[2] = system: human umbilical vein endothelial cells (HUVECs) in co-culture with normal human dermal fibroblasts (NHDF); assay: in vitro angiogenesis assay, HUVEC-NHDF co-culture, CD31 immunostaining; format: cell-based; conditions: for inhibition of angiogenesis compared with (S)-levamisole hydrochloride (1): Figure 5, Table 1
Protocol: The antiangiogenic effects of the compounds were determined in a previously developed assay, designed to evaluate the growth and differentiation of human umbilical vein endothelial cells (HUVECs) in co-culture with normal human dermal fibroblasts (NHDF). […] The cluster morphology known from (S)-levamisole, was also observed for tetramisole (2) (Figure 5B and Table 1), p-bromolevamisole (3) (Figure 5C and Table 1), and N-methyllevamisoles (7a, b), with the latter mentioned showing a slightly more pronounced effect (Figure 5E and F, Figure 6 A–D, Table 1). […] Compound 4 (Figure 5D and Table 1), on the other hand, inhibited the capillary network formation to give small cords exclusively, which is reminiscent of the effect of suramin (5) (Figure 5N and Table 1), another well-known angiogenesis inhibitor [44], [51].
Co-culture cell assays were performed according to a method described previously, [44]. Briefly, 10^3 NHDFs were cultured in each well of a 96-well microtiter plate in NHDF standard medium (100 μL, FGM-2 Bullet kit) at 37°C in an atmosphere containing 5% CO2. After 3 days the medium was removed and 10^3 HUVECs were seeded onto the NHDF in TFSM2 medium (135 μL). The samples of the individual compounds were prepared by weight and dissolved in a concentration of […] in DMSO, PBS, or Milli-Q water followed by pH adjustment, and sterile filtration through 0.22 μm filters. Medium, buffer controls or test samples of 15 µL were added to each well containing the HUVEC–NHDF co-culture and were incubated for 3 days. Experiments were repeated 2–4 times with identical results.
HUVEC and fibroblasts were stained with a CD31 antibody according to the method previously described, [44]. Briefly, the cells were washed with PBS, fixed with ethanol, blocked with TTN buffer, incubated with mouse anti-human CD31 diluted 1∶250 in TTN buffer, washed in TTN buffer and incubated with alkaline phosphatase-conjugated goat anti-mouse IgG diluted 1∶1000 in TTN buffer. Bound antibody was subsequently visualised with BCIP/NBT and inspected in an Olympus IX70 microscope and photographed with an Olympus DP12 digital camera (Magnification: 40x). Image analysis was carried out using the program AnalySIS (Soft Imaging Systems, Münster, Germany).

[3] = target: T2, bovine kidney tissue non-specific alkaline phosphatase (TNAP) (Bos taurus, UniProt P09487); assay: Alkaline phosphatase assay (p-nitrophenyl phosphate), bovine kidney enzyme; format: biochemical
T2 construct: alkaline phosphatase (0.01 U/mL) from human placenta or bovine kidneys; from tissue; host or cells: bovine kidneys
T2 sequence (P09487 18-499 limits assumed): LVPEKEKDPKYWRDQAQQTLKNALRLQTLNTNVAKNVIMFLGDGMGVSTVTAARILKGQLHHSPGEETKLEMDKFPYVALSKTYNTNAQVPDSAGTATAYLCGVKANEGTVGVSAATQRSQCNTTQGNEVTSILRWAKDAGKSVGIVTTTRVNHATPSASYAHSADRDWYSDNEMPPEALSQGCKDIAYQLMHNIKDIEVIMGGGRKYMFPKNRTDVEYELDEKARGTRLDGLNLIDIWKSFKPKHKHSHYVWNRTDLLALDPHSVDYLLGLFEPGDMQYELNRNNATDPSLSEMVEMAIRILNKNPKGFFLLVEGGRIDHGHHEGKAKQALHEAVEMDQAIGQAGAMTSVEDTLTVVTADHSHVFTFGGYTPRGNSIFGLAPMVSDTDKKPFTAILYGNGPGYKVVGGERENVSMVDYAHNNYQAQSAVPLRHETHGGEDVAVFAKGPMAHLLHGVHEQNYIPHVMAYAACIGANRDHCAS
Protocol: as §1

sirtuin 1 (SIRT1) [4] = target: T3, sirtuin 1 (SIRT1) (Homo sapiens, UniProt Q96EB6); assay: SIRT1 inhibition assay (Fluor-de-Lys fluorogenic); format: biochemical; conditions: for inhibition of SIRT1 deacetylase activity: standard fluorogenic assay in vitro
T3 construct: purchased Biomol BML-AK555
T3 sequence (Q96EB6 whole entry): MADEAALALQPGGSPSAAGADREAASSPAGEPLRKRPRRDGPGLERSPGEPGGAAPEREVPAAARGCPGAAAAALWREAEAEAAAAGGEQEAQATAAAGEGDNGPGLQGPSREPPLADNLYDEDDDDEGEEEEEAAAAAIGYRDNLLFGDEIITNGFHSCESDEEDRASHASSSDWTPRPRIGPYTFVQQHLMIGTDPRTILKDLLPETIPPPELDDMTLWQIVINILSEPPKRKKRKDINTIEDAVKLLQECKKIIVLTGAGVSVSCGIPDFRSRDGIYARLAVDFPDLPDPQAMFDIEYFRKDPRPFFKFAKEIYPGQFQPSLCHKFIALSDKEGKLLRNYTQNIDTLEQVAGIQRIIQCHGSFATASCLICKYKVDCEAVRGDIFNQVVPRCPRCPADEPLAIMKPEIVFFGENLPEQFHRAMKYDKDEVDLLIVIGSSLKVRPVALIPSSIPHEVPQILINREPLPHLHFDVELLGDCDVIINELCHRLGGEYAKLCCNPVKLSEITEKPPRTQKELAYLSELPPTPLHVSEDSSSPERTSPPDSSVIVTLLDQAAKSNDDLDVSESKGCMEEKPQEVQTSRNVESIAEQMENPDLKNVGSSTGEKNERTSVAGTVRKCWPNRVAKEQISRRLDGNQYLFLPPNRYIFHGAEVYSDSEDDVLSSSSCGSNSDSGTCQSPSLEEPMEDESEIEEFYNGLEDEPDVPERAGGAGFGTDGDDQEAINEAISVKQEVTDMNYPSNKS
Protocol: The assay was performed according to protocols provided by the supplier (Biomol, BML-AK555). Briefly, the dose–response experiments were performed in black low binding NUNC 96-well microtiter plates. The dilution series were prepared in Milli-Q water from 100 mM DMSO stock solutions. Fluor-de-Lys SIRT1 substrate (250 μM), NAD^+ ([…]), and SIRT1 (2 U/well) were incubated in SIRT assay buffer prepared as described in the Biomol product sheets [Tris/Cl (50 mM), NaCl (137 mM), KCl (2.7 mM), MgCl2 (1 mM), pH 8.0, 1 mg/mL bovine serum albumin] in the presence or absence of the appropriate dilution of compound 7a or suramin. After 1 hour at 37°C, nicotinamide (2 mM) and developer (50 μL, 2×) were added, and the assay development was allowed to proceed for 15–30 minutes at room temperature, before the plate was read using a Tecan plate reader with excitation at 360 nm and emission at 460 nm. Two individual assays were performed in duplicate.

sirtuin 1 (SIRT1) [5] = target: T3, sirtuin 1 (SIRT1); assay: SIRT1 activation assay (Fluor-de-Lys fluorogenic); format: biochemical; conditions: Figure 7
Protocol: The assay was essentially performed as described above for the deacetylase inhibition, but with different concentrations of enzyme and substrate [Fluor-de-Lys SIRT1 substrate (25 μM), NAD^+ (25 μM), SIRT1 (1 U/well)], and using resveratrol as positive control. Two individual assays were performed in duplicate.

[6] = 1 mM, medium control 10.2, DMSO 8.4
[7] = concentration not given, results not shown

c1ccc(C[N+]2=C3SCCN3C[C@@H]2c2ccccc2)cc1 [Compound 11b, N-benzyllevamisole trifluoroacetate]
IC50 [1]: > 2000 µM | Area % (percent of the area covered by HUVEC as observed by CD31 staining) ([2]; 0.4 mM): 4.0% | Grading ([2]; 0.4 mM): + | Morphology ([2]; 0.4 mM): Mixed | IC50 [3]: > 2000 µM

Cc1ccc(C(=O)Nc2ccc(S(=O)(=O)O)c3cc(S(=O)(=O)O)cc(S(=O)(=O)O)c23)cc1NC(=O)c1cccc(NC(=O)Nc2cccc(C(=O)Nc3cc(C(=O)Nc4ccc(S(=O)(=O)O)c5cc(S(=O)(=O)O)cc(S(=O)(=O)O)c45)ccc3C)c2)c1 [Compound 5, suramin, reference compound]
inhibition at 1 µM (sirtuin 1 (SIRT1) [4]; read-out: SIRT1 inhib. (1 μM)): > 90% | inhibition of SIRT1 deacetylase activity (sirtuin 1 (SIRT1) [4]): potently inhibited SIRT1 | Morphology ([2]; 1 mM): Cords | Area % (percent of the area covered by HUVEC as observed by CD31 staining) [2, 6]: 2.2% | IC50 [3]: > 2000 µM

Brc1ccc([C@H]2CN3CCSC3=N2)cc1 [Compound 3, (–)-p-bromolevamisole oxalate, reference compound]
IC50 [1]: 700 µM | Grading ([2]; 1 mM): ++++ (clusters with area <4%) | Morphology ([2]; 1 mM): Clusters | Area % (percent of the area covered by HUVEC as observed by CD31 staining) [2, 6]: 3.4% | inhibition of angiogenesis compared with (S)-levamisole hydrochloride (1) [2]: more potent than (S)-levamisole hydrochloride | IC50 [3]: > 2000 µM

CC(C)[N+]1=C2SCCN2C[C@@H]1c1ccccc1 [Compound 9, (S)-N-Isopropyllevamisole trifluoroacetate]
IC50 [1]: > 2000 µM | Area % (percent of the area covered by HUVEC as observed by CD31 staining) ([2]; 0.6 mM): 2.6% | Grading ([2]; 0.6 mM): + | Morphology ([2]; 0.6 mM): Mixed | IC50 [3]: > 2000 µM

O=C(O)CNC(CO)(CO)CO [TRICINE, reference compound]
effect in the angiogenesis assay [2, 7]: neither showed an effect

NC(CO)(CO)CO [TRIZMA, reference compound]
effect in the angiogenesis assay [2, 7]: neither showed an effect

CC[N+]1=C2SCCN2C[C@@H]1c1ccccc1 [Compound 8a, N-ethyllevamisole iodide]
IC50 [1]: > 2000 µM | Area % (percent of the area covered by HUVEC as observed by CD31 staining) ([2]; 0.7 mM): 5.2% | Grading ([2]; 0.7 mM): + | Morphology ([2]; 0.7 mM): Mixed | IC50 [3]: > 2000 µM

Cn1ccnc1 [N-methylimidazole, reference compound]
effect in the angiogenesis assay ([2]; 1 mM): no effect | effect in the angiogenesis assay ([2]; 10 mM): had an effect

CCCC[N+]1=C2SCCN2C[C@@H]1c1ccccc1 [Compound 10, (S)-N-(n-Butyl)-levamisole trifluoroacetate]
Area % (percent of the area covered by HUVEC as observed by CD31 staining) ([2]; 0.3 mM): 5.0% | Grading ([2]; 0.3 mM): + | Morphology ([2]; 0.3 mM): Mixed

O=S(=O)(O)CCN1CCN(CCO)CC1 [HEPES, reference compound]
effect in the angiogenesis assay [2, 7]: neither showed an effect

CC[N+]1=C2SCCN2C[C@@H]1c1ccccc1 [Compound 8b, N-ethyllevamisole trifluoroacetate]
Area % (percent of the area covered by HUVEC as observed by CD31 staining) ([2]; 0.2 mM): 5.4% | Grading ([2]; 0.2 mM): + | Morphology ([2]; 0.2 mM): Mixed

C[N+]1=C2SCCN2C[C@@H]1c1ccccc1 [Compound 7b, N-methyllevamisole trifluoroacetate]
IC50 [1]: > 2000 µM | Grading ([2]; 1 mM): ++++ (clusters with area <4%) | Morphology ([2]; 1 mM): Clusters | Area % (percent of the area covered by HUVEC as observed by CD31 staining) [2, 6]: 3.3% | inhibition of angiogenesis compared with (S)-levamisole hydrochloride (1) [2]: more potent than (S)-levamisole hydrochloride | IC50 [3]: > 2000 µM | inhibition of tissue non-specific alkaline phosphatase ([3]; at 2 mM or higher): no inhibition

c1ccc(C2CN3CCSC3=N2)cc1 (racemic) [Compound 2, (±)-levamisole, reference compound]
IC50 [1]: 1200 µM | Grading ([2]; 1 mM): ++ (clusters with area >4%) | Morphology ([2]; 1 mM): Clusters | Area % (percent of the area covered by HUVEC as observed by CD31 staining) [2, 6]: 8.0% | inhibition of angiogenesis compared with (S)-levamisole hydrochloride (1) [2]: same effect as the enantiomerically pure parent compound | IC50 [3]: 1000 µM

C[N+]1=C2SCCN2C[C@@H]1c1ccccc1 [Compound 7a, N-methyllevamisole triflate]
activation of SIRT1 compared to resveratrol (sirtuin 1 (SIRT1) [5]): ruled out interaction with this regulatory enzyme | IC50 [1]: > 2000 µM | SIRT1 inhib. (1 μM) (sirtuin 1 (SIRT1) [4]; 1 μM): Not active^b | deacetylation compared to the control wells (sirtuin 1 (SIRT1) [4]; at 10 μM and 100 μM, data not shown): elevated values of deacetylation | inhibition of SIRT1 deacetylase activity (sirtuin 1 (SIRT1) [4]): no inhibitory effect | Grading ([2]; 1 mM): ++++ (clusters with area <4%) | Morphology ([2]; 1 mM): Clusters | Area % (percent of the area covered by HUVEC as observed by CD31 staining) [2, 6]: 2.8% | inhibition of angiogenesis compared with (S)-levamisole hydrochloride (1) [2]: more potent than (S)-levamisole hydrochloride | concentration at which the cluster-inducing effect is already exerted (titration) ([2]; titration experiments, Figure 6F): 30 µM | IC50 [3]: 100 µM

O=C(O)CN(CCO)CCO [BICINE, reference compound]
effect in the angiogenesis assay ([2]; 10 mM): Neither BIS-TRIS nor BICINE showed any effects

Nc1ccc(-c2cn3c(n2)SCC3)cc1 [Compound 4, 4-(2,3-dihydroimidazo-[2,1-b]thiazol-6-yl)aniline, reference compound]
Grading ([2]; 1 mM): +++ (cords with area <4%) | Morphology ([2]; 1 mM): Cords | Area % (percent of the area covered by HUVEC as observed by CD31 staining) [2, 6]: 2.0% | inhibition of angiogenesis compared with (S)-levamisole hydrochloride (1) [2]: more potent than (S)-levamisole hydrochloride

c1ccc(C[N+]2=C3SCCN3C[C@@H]2c2ccccc2)cc1 [Compound 11a, N-benzyllevamisole bromide]
Area % (percent of the area covered by HUVEC as observed by CD31 staining) ([2]; 0.7 mM): 2.8% | Grading ([2]; 0.7 mM): + | Morphology ([2]; 0.7 mM): Mixed

OCCN(CCO)C(CO)(CO)CO [BIS-TRIS, reference compound]
effect in the angiogenesis assay ([2]; 10 mM): Neither BIS-TRIS nor BICINE showed any effects

c1ccc([C@H]2CN3CCSC3=[N+]2CC2CCCCC2)cc1 [Compound 12, (S)-N-Cyclohexylmethylenelevamisole]
IC50 [1]: > 2000 µM | Area % (percent of the area covered by HUVEC as observed by CD31 staining) ([2]; 0.1 mM): 3.7% | Grading ([2]; 0.1 mM): + | Morphology ([2]; 0.1 mM): Mixed | IC50 [3]: > 2000 µM
